Test results: PubChem BioAssay (NCI)
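Assay format: 96-well plates, 48-hour exposure. At the TGI there is no net growth.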

Tests used:
Assay in all cases: DTP human tumour cell line panel, 48 h
[1] = test system: 786-0 renal
[2] = test system: A498 renal
[3] = test system: A549 NSCLC
[4] = test system: ACHN renal
[5] = test system: BT-549 breast
[6] = test system: CAKI-1 renal
[7] = test system: COLO 205 colon
[8] = test system: DU-145 prostate
[9] = test system: EKVX NSCLC
[10] = test system: HCC-2998 colon
[11] = test system: HCT-116 colon
[12] = test system: HCT-15 colon
[13] = test system: HL-60(TB) leukemia
[14] = test system: HOP-62 NSCLC
[15] = test system: HOP-92 NSCLC
[16] = test system: HS 578T breast
[17] = test system: HT29 colon
[18] = test system: IGROV1 ovarian
[19] = test system: K-562 leukemia
[20] = test system: KM12 colon
[21] = test system: LOX IMVI melanoma
[22] = test system: M14 melanoma
[23] = test system: MALME-3M melanoma
[24] = test system: MCF7 breast
[25] = test system: MDA-MB-231 breast
[26] = test system: MDA-MB-435
[27] = test system: MDA-N
[28] = test system: NCI-H226 lung
[29] = test system: NCI-H23 lung
[30] = test system: NCI-H460 lung
[31] = test system: NCI-H522 lung
[32] = test system: NCI/ADR-RES ovarian
[33] = test system: OVCAR-3 ovarian
[34] = test system: OVCAR-4 ovarian
[35] = test system: OVCAR-5 ovarian
[36] = test system: OVCAR-8 ovarian
[37] = test system: PC-3 prostate
[38] = test system: RPMI-8226 leukemia
[39] = test system: RXF 393 renal
[40] = test system: SF-268 CNS
[41] = test system: SF-295 CNS
[42] = test system: SF-539 CNS
[43] = test system: SK-MEL-2 melanoma
[44] = test system: SK-MEL-28 melanoma
[45] = test system: SK-MEL-5 melanoma
[46] = test system: SK-OV-3 ovarian
[47] = test system: SN12C renal
[48] = test system: SNB-19 CNS
[49] = test system: SNB-75 CNS
[50] = test system: SR leukemia
[51] = test system: SW-620 colon
[52] = test system: TK-10 renal
[53] = test system: U251 CNS
[54] = test system: UACC-257 melanoma
[55] = test system: UACC-62 melanoma
[56] = test system: UO-31 renal
[57] = test system: MOLT-4 leukemia
[58] = test system: T-47D breast

In the case of `O=C(Nc1ccc([As](=O)(O)O)cc1)Nc1cccc(Cl)c1Cl`, the TGI [1] is reported as > 100 µM, the TGI [2] is reported as > 100 µM and the TGI [3] is reported as > 100 µM. The TGI [4] was > 100 µM, the TGI [5] was > 100 µM and the TGI [6] was > 100 µM. The TGI [7] was > 100 µM, the TGI [8] was > 100 µM and the TGI [9] was > 100 µM. For the same compound, the TGI [10] was > 100 µM, the TGI [11] was > 100 µM and the TGI [12] was > 100 µM. For the same compound, the TGI [13] was > 100 µM, the TGI [14] was > 100 µM and the TGI [15] was > 100 µM. The TGI [16] was 84.8 µM, the TGI [17] was > 100 µM and the TGI [18] was > 100 µM. For the same compound, the TGI [19] was > 100 µM, the TGI [20] was > 100 µM and the TGI [21] was > 100 µM. The TGI [22] was > 100 µM, the TGI [23] was > 100 µM and the TGI [24] was > 100 µM. The TGI [25] was > 100 µM, the TGI [26] was > 100 µM and the TGI [27] was > 100 µM. For the same compound, the TGI [28] was > 100 µM, the TGI [29] was > 100 µM and the TGI [30] was > 100 µM. The TGI [31] was > 100 µM, the TGI [32] was > 100 µM and the TGI [33] was > 100 µM. The TGI [34] was > 100 µM, the TGI [35] was > 100 µM and the TGI [36] was > 100 µM. The TGI [37] was > 100 µM, the TGI [38] was > 100 µM and the TGI [39] was 67.7 µM. For the same compound, the TGI [40] was > 100 µM, the TGI [41] was > 100 µM and the TGI [42] was > 100 µM. The TGI [43] was > 100 µM, the TGI [44] was > 100 µM and the TGI [45] was > 100 µM. For the same compound, the TGI [46] was > 100 µM, the TGI [47] was > 100 µM and the TGI [48] was > 100 µM. For the same compound, the TGI [49] was 65.4 µM, the TGI [50] was > 100 µM and the TGI [51] was > 100 µM. For the same compound, the TGI [52] was > 100 µM, the TGI [53] was > 100 µM and the TGI [54] was > 100 µM. For the same compound, the TGI [55] was > 100 µM and the TGI [56] was > 100 µM.

In the case of `N#C[C@@H](c1nc2ccccc2s1)c1ncccc1[N+](=O)[O-]`, the TGI [1] is reported as 17.2 µM, the TGI [2] is reported as > 31.6 µM and the TGI [3] is reported as 18.1 µM. The TGI [4] was > 31.6 µM, the TGI [5] was 26.9 µM and the TGI [6] was > 100 µM. For the same compound, the TGI [7] was 8.8 µM, the TGI [8] was > 31.6 µM and the TGI [9] was > 31.6 µM. For the same compound, the TGI [10] was 28.5 µM, the TGI [11] was 14 µM and the TGI [12] was > 31.6 µM. The TGI [14] was > 57.6 µM, the TGI [15] was 6.85 µM and the TGI [16] was 27.6 µM. For the same compound, the TGI [20] was > 62.9 µM, the TGI [21] was 13.9 µM and the TGI [22] was > 31.6 µM. The TGI [24] was 17.3 µM, the TGI [25] was 17.4 µM and the TGI [26] was > 100 µM. The TGI [27] was > 31.6 µM, the TGI [57] was > 31.6 µM and the TGI [28] was 87.8 µM. It also gave a TGI [29] of 16.1 µM, a TGI [30] of 14.2 µM and a TGI [31] of 12 µM. For the same compound, the TGI [32] was 19.4 µM, the TGI [33] was 10.6 µM and the TGI [34] was > 100 µM. For the same compound, the TGI [35] was > 31.6 µM, the TGI [36] was 20.6 µM and the TGI [37] was 18.1 µM. The TGI [39] was > 31.6 µM, the TGI [40] was > 31.6 µM and the TGI [41] was 40.7 µM. For the same compound, the TGI [43] was > 31.6 µM, the TGI [45] was 37.3 µM and the TGI [46] was > 61.1 µM. The TGI [47] was > 31.6 µM, the TGI [48] was 17.4 µM and the TGI [49] was > 31.6 µM. It also gave a TGI [58] of 25 µM, a TGI [52] of 74.7 µM and a TGI [53] of 11.7 µM. For the same compound, the TGI [54] was > 100 µM, the TGI [55] was > 31.6 µM and the TGI [56] was 25.6 µM.
